# System: NanoLuc-PEST expressing L. mexicana axenic amastigotes
# Assay: microbe, parasite or virus in culture
# Type: cell-based
# Conditions: for viability at 2 µM / viability at 10 µM: Leishmania mexicana, read-out: Relative Bioluminescence (%); for viability at 2 µM / viability at 10 µM / Relative Bioluminescence (%): 72 hours, relative to DMSO only control, n = 4
Structure (SMILES),viability at 2 µM (2 µM compound),viability at 10 µM (10 µM compound),Relative Bioluminescence (%) (2 µM compound),Relative Bioluminescence (%) (10 µM compound),"EC50 (hit compounds from the axenic amastigote screen, S3 Table, read-out: EC50, Axenic Amastigotes)"
"NCC[C@H](O)C(=O)N[C@@H]1C[C@H](N)[C@@H](O[C@H]2O[C@H](CN)[C@@H](O)[C@H](O)[C@H]2O)[C@H](O)[C@H]1O[C@H]1O[C@H](CO)[C@@H](O)[C@H](N)[C@H]1O [MMV687796, Amikacin, reference compound]",79.3%,58.2%,–,–,–
"CC(C)/N=c1\cc2n(-c3ccc(Cl)cc3)c3ccccc3nc-2cc1Nc1ccc(Cl)cc1 [MMV687800, Clofazimine, reference compound]",41.1%,37.9%,–,–,–
"CC[C@@H](CO)NCCN[C@@H](CC)CO [MMV687801, Ethambutol, reference compound]",98.6%,127%,–,–,–
"CC(=O)NC[C@H]1CN(c2ccc(N3CCOCC3)c(F)c2)C(=O)O1 [MMV687803, Linezolid, reference compound]",76.5%,111%,–,–,–
O=C(Nc1ccc(C(F)(F)F)c(C(F)(F)F)c1)c1cc(Cl)ccc1O [MMV687807],–,–,0.88%,0.53%,250 nM
CN1CCN(CCCOc2ncc(Nc3ncc(-c4ccc(C(F)(F)F)c(F)c4)nc3C(N)=O)cn2)CC1 [MMV687812],–,–,66.08%,77.79%,–
O=C1O[C@@H](COc2ccon2)CN1c1cc(F)c(C2=CCN(Cc3ccccc3)CC2)c(F)c1 [MMV687813],–,–,52.93%,58.34%,–
Cc1cccc(-c2nc(Nc3ccncn3)c3sccc3n2)n1 [MMV688122],–,–,61.39%,16.72%,–
CCc1ccc(S(=O)(=O)Nc2cc(CN3CCN(CCC(C)C)CC3)ccc2C)cc1 [MMV688124],–,–,85.13%,56.21%,–
CCCc1ccc(S(=O)(=O)Nc2ccc(CN3CCN(CC4CC4)CC3)cc2)cc1 [MMV688125],–,–,86.53%,100.33%,–
c1ccc(Oc2ccc(-c3cncc(-c4ccc5[nH]ccc5c4)n3)cc2)cc1 [MMV688178],–,–,91.24%,94.95%,–
NC(N)=Nc1ccc(-c2ccc(-c3ccc(N=C(N)N)cc3Cl)o2)c(Cl)c1 [MMV688179],–,–,105.96%,54.50%,–
Cc1nn(C)c(C)c1NS(=O)(=O)c1c(Cl)cc(-c2ccnc(N3CCNCC3)c2)cc1Cl [MMV688180],–,–,98.32%,81.67%,–
COc1ccc(-c2cnc3cnc(-c4cccc(OC(C)C)c4)cn23)cc1 [MMV688270],–,–,58.63%,51.88%,–
N=C(N)Nc1ccc(-c2ccc(-c3ccc(N=C(N)N)c(Cl)c3)o2)cc1Cl [MMV688271],–,–,98.92%,56.10%,–
Nc1ccc2ncnc(Nc3ccc(OCc4cccc(F)c4)c(Cl)c3)c2c1 [MMV688273],–,–,63.86%,0.09%,–
O=C(CN1CCOCC1)Nc1ccc2ncnc(Nc3ccc(OCc4cccc(F)c4)c(Cl)c3)c2c1 [MMV688274],–,–,72.23%,7.31%,–
CC1=Nc2ccc(Cl)cc2C(O)(c2ccc(C)cc2)N1CCN1CCCCC1 (stereo not drawn) [MMV688279],–,–,70.45%,75.33%,–
CN1CCN(S(=O)(=O)c2ccc(-c3ccc4c(Nc5ncc(Cl)cn5)ccnc4c3)cc2)CC1 [MMV688283],–,–,58.40%,101.72%,–
